From the SangsterLogP compilation

Question: For `CCN(CC)CCOC(=O)/C=C/c1ccc(F)cc1`, which logP is on record?
Answer: The logP was 3.52.

Question: With `CCN(CC)CCOC(=O)C=Cc1ccc(OC)c(OC)c1` as the compound, how does the logP read?
Answer: Its logP is 2.88.

Question: With `O=C(O)C=CC=Cc1ccccc1` as the compound, how does the logP read?
Answer: Its logP is 3.15.

Question: For `COc1ccc(C=CC(=O)O)cc1OC`, which logP is on record?
Answer: The logP was 2.34.

Question: With `COC(=O)/C=C/c1ccc(O)c(O)c1` as the compound, how does the logP read?
Answer: The logP was 2.22.

Question: Which logP does the source give for `CCOC(=O)/C=C/c1ccc(O)c(O)c1` here?
Answer: The logP was 2.56.

Question: For `O=C(O)/C=C/c1ccc2c(c1)OCO2`, which logP is on record?
Answer: The logP was 2.59.

Question: For `CCN(CC)CCOC(=O)/C=C/c1ccccc1`, which logP is on record?
Answer: The logP was 3.61.

Question: Which logP does the source give for `O=C(C=Cc1ccccc1)OCC=Cc1ccccc1` here?
Answer: The logP was 4.45.

Question: With `COc1ccc(/C=C/C(=O)O)cc1` as the compound, how does the logP read?
Answer: Its logP is 2.68.

Question: Which logP does the source give for `O=C(O)/C=C/c1ccc(O)cc1` here?
Answer: The logP was 1.79.

Question: With `COc1cc(C=CC(=O)O)ccc1O` as the compound, how does the logP read?
Answer: Its logP is 1.87.

Question: With `CCN(CC)CCOC(=O)/C=C/c1cc(OC)c(OC)c(OC)c1` as the compound, how does the logP read?
Answer: Its logP is 2.84.
